Results as given in ChEMBL document CHEMBL1149790, “Synthesis of some novel thiourea derivatives obtained from 5-[(4-aminophenoxy)methyl]-4-alkyl/aryl-2,4-dihydro-3H-1,2,4-triazole-3-thiones and evaluation as antiviral/anti-HIV and anti-tuberculosis agents” (Eur J Med Chem, 2008).
Converted amounts (≈) assume the structure as drawn.

Test system: Mycobacterium tuberculosis
Test: Antitubercular activity against Mycobacterium bovis BCG
Type: functional
Settings: variant bovis BCG

CC(C)CCOc1ccc(NC(=S)Nc2ccc(OCCC(C)C)cc2)cc1 [TIOCARLIDE]
MIC: 0.5 µg/mL (≈ 1.25 µM)
